Assay results published in ChEMBL document CHEMBL1133302, “Use of proline bioisosteres in potential HIV protease inhibitors: phenylalanine-2-thiophenoxy-3-pyrrolidinone: synthesis and anti-HIV evaluation” (Bioorg Med Chem Lett, 2000).

What was measured:
MT4 [1] = assay: CC50 value was measured as concentration required to cause 50% death of uninfected MT-4 cells.; assay type: functional; settings: Homo sapiens
MT4 [2] = assay: EC50 value was measured as concentration required to inhibit syncytia formation by 50% in MT-4 cells; NA-Nonactive at nontoxic concentration; assay type: functional, cell-based, Homo sapiens
[3] = target: T1, Human immunodeficiency virus type 1 protease (Human immunodeficiency virus 1, UniProt Q72874); assay: Compound was evaluated for the inhibition of HIV-1 protease; NA-Nonactive at nontoxic concentration
[4] = target: T1, Human immunodeficiency virus type 1 protease; assay: Compound was evaluated for the inhibition of HIV-1 protease
MT4 [5] = assay: EC50 value was measured as concentration required to inhibit syncytia formation by 50% in MT-4 cells.; assay type: functional, cell-based; settings: Homo sapiens
[6] = Selective index is the ratio of CC50 to that of EC50 (CC50/EC50); assay type: functional

Structure (SMILES) | CC50 (MT4 [1]) [µM] | EC50 (MT4 [2]) | IC50 [3] | IC50 [4] [µM] | EC50 (MT4 [5]) [µM] | SI [6]
CC(C)(C)OC(=O)NC(Cc1ccccc1)C(=O)N1CCC(=O)C1Sc1ccccc1 (racemic) | > 100 | Not Active | Not Active |  |  | 
COc1ccc(C[C@H](NC(=O)OC(C)(C)C)C(=O)N2CCC(=O)[C@@H]2Sc2ccccc2)cc1 | > 100 | Not Active |  | 10 |  | 
CC(C)(C)OC(=O)N[C@@H](Cc1ccc(OCc2ccccc2)cc1)C(=O)N1CCC(=O)[C@@H]1Sc1ccccc1 | 10 | Not Active |  | 0.02 |  | 
O=C(N[C@@H](Cc1ccccc1)C(=O)N1CCC(=O)C1Sc1ccccc1)c1ccc2ccccc2n1 (some centres undefined) | 50 | Not Active |  | 5 |  | 
CC(C)(C)OC(=O)N[C@@H](Cc1ccccc1)C(=O)N1CCC(=O)[C@H]1Sc1ccccc1 | > 100 |  |  | 0.008 | 1 | > 100
COc1ccc(C[C@H](NC(=O)OC(C)(C)C)C(=O)N2CCC(=O)[C@H]2Sc2ccccc2)cc1 | 50 | Not Active |  | 10 |  | 
CC(C)(C)OC(=O)N[C@@H](Cc1ccc(OCc2ccccc2)cc1)C(=O)N1CCC(=O)[C@H]1Sc1ccccc1 | 50 |  |  | 0.02 | 0.1 | 500
CC(C)(C)OC(=O)N[C@@H](Cc1ccc(O)cc1)C(=O)N1CCC(=O)[C@H]1Sc1ccccc1 | 50 |  |  | 0.026 | 0.1 | 500
O=C(N[C@@H](Cc1ccccc1)C(=O)N1CCC(=O)C1Sc1ccccc1)c1cccnc1 (some centres undefined) | 50 |  |  | 0.1 | 1 | 50
CC(C)(C)OC(=O)N[C@@H](Cc1ccc(O)cc1)C(=O)N1CCC(=O)[C@@H]1Sc1ccccc1 | > 100 |  |  | 0.025 | 50 | > 2
CC(C)(C)OC(=O)N[C@@H](Cc1ccccc1)C(=O)N1CCC(=O)[C@@H]1Sc1ccccc1 | 100 |  |  | 1 | 50 | 2
